# Results reported in ChEMBL document CHEMBL4387712, “Development of the binding molecules for the RNA higher-order structures based on the guanine-recognition by the G-clamp” (Bioorg Med Chem Lett, 2019).
# pKd: −log10 of the molar value. Active and inactive are the calls of the source. The calls are words filed in the database; no cut-off is given here.
# Legend:
# [1] = Binding affinity to sh(-GUA-) RNA (unknown origin) by fluorescence titration method
# [2] = Binding affinity to sh(-CUG-) RNA (unknown origin) by fluorescence titration method
# [3] = Binding affinity to sh(-CUG-) RNA (unknown origin) at 10 nM by fluorescence spectra analysis
# [4] = Binding affinity to sh(-GUA-) RNA (unknown origin) at 10 nM by fluorescence spectra analysis
# [5] = Binding affinity to ssRNA-5 mer (unknown origin) at 10 nM by fluorescence spectra analysis
# [6] = Binding affinity to sh(-GUG-) RNA (unknown origin) at 10 nM by fluorescence spectra analysis
# [7] = Binding affinity to sh(-CUA-) RNA (unknown origin) at 10 nM by fluorescence spectra analysis
# [8] = Binding affinity to stem-loop RNA (unknown origin) at 10 nM by fluorescence spectra analysis
# [9] = Binding affinity to sh(-GUG-) RNA (unknown origin) assessed as increase in fluorescence at 10 nM by fluorescence spectra analysis relative to control
# [10] = Binding affinity to mismatch G2 RNA mutant (unknown origin) assessed as increase in fluorescence intensity at 10 nM by fluorescence spectra analysis
# [11] = Binding affinity to sh(-GUG-) RNA (unknown origin) by fluorescence titration method
# [12] = Binding affinity to sh(-GUG-) RNA (unknown origin) assessed as bathochromic effect at 10 uM by UV-vis spectral analysis
# [13] = Binding affinity to wild-type full length pre-miRNA-17 (unknown origin) assessed as increase in fluorescence intensity at 10 nM by fluorescence spectra analysis
# [14] = Binding affinity to sh(-GUG-) RNA (unknown origin) assessed as hypochromic effect at 10 uM by UV-vis spectral analysis
# [15] = Binding affinity to G0 RNA (unknown origin) at 10 nM by fluorescence spectra analysis
# [16] = Binding affinity to ssRNA-5 mer (unknown origin) assessed as increase in fluorescence at 10 nM by fluorescence spectra analysis
# [17] = Binding affinity to sh(-GUA-) RNA (unknown origin) assessed as increase in fluorescence at 10 nM by fluorescence spectra analysis relative to control
# [18] = Binding affinity to stem-duplex RNA (unknown origin) at 10 nM by fluorescence spectra analysis
# [19] = Binding affinity to sh(-CUA-) RNA (unknown origin) assessed as increase in fluorescence at 10 nM by fluorescence spectra analysis
# [20] = Binding affinity to sh(-GUG-) RNA (unknown origin) at 10 uM by circular dichroism
# [21] = Binding affinity to sh(-CUG-) RNA (unknown origin) assessed as increase in fluorescence at 10 nM by fluorescence spectra analysis relative to control
# [22] = Binding affinity to overhang G2 RNA mutant (unknown origin) assessed as increase in fluorescence intensity at 10 nM by fluorescence spectra analysis
# [23] = Binding affinity to sh(-CUA-) RNA (unknown origin) at 10 uM by circular dichroism
# [24] = Binding affinity to sh(-CUA-) RNA (unknown origin) assessed as change in UV spectrum at 10 uM by UV-vis spectral analysis
# [25] = Binding affinity to hairpin G2 RNA mutant (unknown origin) assessed as increase in fluorescence intensity at 10 nM by fluorescence spectra analysis
structure (smiles),measurement,setting,value
CN(C)CCCNC(=O)Cn1cc2c(nc1=O)Nc1c(OCCN)cccc1O2,pKd,[1],6.69
same,pKd,[2],6.81
same,Activity,[3],Active
same,Activity,[4],inactive
same,Activity,[5],inactive
same,Activity,[6],Active
same,Activity,[7],inactive
CN(CCCNC(=O)Cn1cc2c(nc1=O)Nc1c(OCCN)cccc1O2)CCCNC(=O)Cn1cc2c(nc1=O)Nc1c(OCCN)cccc1O2,pKd,[1],6.99
same,Activity,[8],Active
same,pKd,[2],7.57
same,Activity,[9],Active
same,fold change (FC),[9],7
same,Activity,[10],Active
same,pKd,[11],8.05
same,Activity,[12],Active
same,Activity,[13],Active
same,Activity,[14],Active
same,Activity,[15],Active
same,Activity,[16],inactive
same,fold change (FC),[17],2.6
same,Activity,[18],Active
same,Activity,[19],inactive
same,Activity,[20],Active
same,fold change (FC),[21],4.1
same,Activity,[22],Active
same,Activity,[23],inactive
same,Activity,[24],inactive
same,Activity,[25],Active
